Read-outs that look alike come from different tables or passages of the source.
Assays:
[1] = tested on: lung GSH; conditions: after BSO, before 200 mg/kg naphthalene; cited from earlier work
[2] = tested on: liver GSH; conditions: cited from earlier work
[3] = tested on: mouse lung; conditions: cited from earlier work; for Covalent binding in the lung: Male Swiss-Webster mouse, ip
[4] = tested on: Sherman rats; conditions: po, cited from earlier work
[5] = tested on: liver GSH; conditions: 200 mg/kg oral, rat, 6 1/2 hours; observed; cited from earlier work
[6] = tested on: mouse liver; conditions: 200 mg/kg naphthalene, cited from earlier work
[7] = Biotransformation of naphthalene by rat lung microsomes; type: in vitro ADME
Text: (§1) Determination of Vmax's and Km's for naphthalene oxide production and Vmax's for GSH conjugates and dihydrodiol production in rat microsomes were done in the same way as for the mouse. Sources of data were Buckpitt, et al, 1987, supra, Hesse, S. and Mezger, M., "Involvement of Phenolic Metabolites in the Irreversible Protein-binding of Aromatic Hydrocarbons: Reactive Metabolites of [^14 C]-naphthalene and [^14 C] 1-naphthol Formed by Rat Liver Microsomas", Mol. Pharmacol. 16: 667-675 (1979) which is hereby incorporated by reference, O'Brien et al., 1985, supra, van Bladeren et al., 1985, supra, and Yost, G. S., Buckpitt, A. R., Roth, R. A., and McLemore, T. L., "Mechanisms of Lung Injury by Systematically Administered Chemicals", Toxicol. Appl. Pharmacol. 101: 179-195 (1989), which is hereby incorporated by reference.

[8] = tested on: CD-1 mice; conditions: po, cited from earlier work
[9] = tested on: mouse liver microsomes; conditions: Observed; 1 mM naphthalene, 5 mM GSH; cited from earlier work
[10] = Biotransformation of naphthalene by mouse lung microsomes; type: in vitro ADME; conditions: mouse, lung microsomes
Method: (§2) Biotransformation rates of naphthalene at initial concentrations of 0.05, 0.1 and 1.0 mM by lung and liver microsomes have been determined (O'Brien, et al. (1985), supra, Buckpitt, A. R., Bahnson, L. S., and Franklin, R. B., "Hepatic and Pulmonary Microsomal Metabolism of Naphthalene to Glutathione Adducts: Factors Affecting the Relative Rates of Conjugate Formation", J. Pharmacol. Exp. Ther. 231: 291-300 (1984), which is hereby incorporated by reference), and Buckpitt, A. R., Castagnoli, Jr., N., Nelson, et al., "Stereoselectivity of Naphthalene Epoxidation by Mouse, Rat, and Hamster Pulmonary, Hepatic and Renal Microsomal Enzymes", Drug Metab. Dispos. 15: 491-498 (1987), which is hereby incorporated by reference). Assuming Michaelis-Menten kinetics, fitting s/v vs s was used to provide Vmax and Km values. Since mouse liver produces the 1R,2S- and 1S,2R-naphthalene oxide enantiomers in equal amounts at all substrate concentrations (Buckpitt, et al., 1987, supra), the calculated Vmax was divided by two to give the production rates for each enantiomer.
(§3) For the lung, the biotransformation of naphthalene was modeled as the sum of two separate reactions, each producing a different enantiomer, with the Vmax's summing to the value calculated as described above.

[11] = tested on: mouse lung microsomes; assay: as above; type: in vitro ADME
Method: as §2, §3

[12] = tested on: Clara cells of the lung; conditions: similar binding levels in lung and liver; cited from earlier work
[13] = Biotransformation of naphthalene by rat liver microsomes; type: in vitro ADME
Text: as §1

[14] = tested on: mouse lung microsomes; conditions: cited from earlier work
[15] = Biotransformation of naphthalene by mouse liver microsomes; type: in vitro ADME; conditions: mouse, liver microsomes; read-out: Km, N to 1R, 2S NO
Method: as §2

[16] = tested on: mouse liver microsomes; assay: as above; type: in vitro ADME; conditions: Mouse, Liver
Method: as §2

[17] = tested on: mouse liver microsomes; conditions: cited from earlier work
[18] = Lung, Experiment, 0.1 mM naphthalene, 6 minutes
[19] = [N] 1.0 mM, Buckpitt et al., 1987
[20] = Liver, Experiment, 0.1 mM naphthalene, 6 minutes

CCCCS(=N)(=O)CCC(N)C(=O)O (stereo not shown) [BSO, buthionine sulfoximine]
GSH level in lung, percent of control [1]: 86%
GSH level in liver, percent of control ([2]; after BSO, before 200 mg/kg naphthalene): 35%
hepatic and pulmonary GSH ([2]; mice pretreated with BSO): hepatic and pulmonary GSH are depleted
GSH depletion, liver versus lung ([2]; treatment of mice with BSO): depletes GSH in the liver more than in the lung

c1ccc2ccccc2c1 [naphthalene]
experimental covalent binding in lung ([3]; 200 mg/kg naphthalene, with BSO pretreatment): 411 pmol/mg
experimental covalent binding in lung ([3]; 200 mg/kg naphthalene, without BSO): 137 pmol/mg
experimental increase in lung covalent binding by BSO ([3]; 200 mg/kg naphthalene): 3.0 factor
Covalent binding in the lung ([3]; 300 mg/kg): 675 pmol/mg
Covalent binding in the lung ([3]; 400 mg/kg): 912 pmol/mg
LD50 ([4]; female Sherman rats): 2400 mg/kg
LD50 ([4]; male Sherman rats): 2200 mg/kg
liver GSH, percent of the initial concentration [5]: 17%
observed binding level in liver ([6]; with BSO pretreatment): 1069 pmol/mg
observed binding level in liver ([6]; without BSO): 255 pmol/mg
Km ([7]; read-out: Km, N to 1R, 2S NO): 400 µM
Km ([7]; read-out: Km, N to 1S, 2R NO): 1540 µM
LD50 ([8]; female CD-1 mice): 710 mg/kg
LD50 ([8]; male CD-1 mice): 533 mg/kg
1,2 dihydrodiol formation rate [9]: 2.43 nmol/mg/min
Conjugate 2 formation rate [9]: 3.64 nmol/mg/min
Conjugates 1 and 3 formation rate [9]: 3.56 nmol/mg/min
Km ([10]; read-out: Km, N to 1R, 2S NO): 100 µM
Km ([10]; read-out: Km, N to 1S, 2R NO): 400 µM
Vmax, N to 1R, 2S NO [11]: 9.0 nmol/mg/min
Vmax, N to 1S, 2R NO [11]: 1.1 nmol/mg/min
site of toxicity [12]: toxicity is limited to the Clara cells of the lung
Km ([13]; read-out: Km, N to 1R, 2S NO): 400 µM
Km ([13]; read-out: Km, N to 1S, 2R NO): 800 µM
Covalently bound [14, 18]: 7.4 nmol/mg
Diol formed [14, 18]: 4.2 nmol/mg
NOH formed [14, 18]: 21.2 nmol/mg
observed ratio of conjugates of 1R, 2S and 1S, 2R naphthalene oxide ([14]; [N] 0.015 mM, Buckpitt and Franklin, 1989): 30
observed v ([14]; [N] 0.05 mM, O'Brien et al., 1985): 1.33 nanomoles of product/mg micros
observed v ([14]; [N] 0.10 mM, Buckpitt et al., 1984): 6.01 nanomoles of product/mg micros
observed ratio of conjugates of 1R, 2S and 1S, 2R naphthalene oxide [14, 19]: 10
observed v [14, 19]: 8.3 nanomoles of product/mg micros
Km [15]: 307 µM
Vmax, N to 1R, 2S NO [16]: 6.95 nmol/mg/min
Vmax, N to 1S, 2R NO [16]: 6.95 nmol/mg/min
Covalently bound [17, 20]: 5.8 nmol/mg
Diol formed [17, 20]: 11.9 nmol/mg
NOH formed [17, 20]: 3.5 nmol/mg
1R,2S- and 1S,2R-naphthalene oxide enantiomers produced ([17]; mouse liver, all substrate concentrations): equal amounts
